Laboratory results as given in patent publication US20150071904A1, “COMPOSITIONS AND METHODS TO BOOST ENDOGENOUS ROS PRODUCTION FROM BACTERIA” (Trustees of Boston University, priority 2012, published 2015).

Legend:
[1] = tested on: Escherichia coli MG1655 wildtype and single-gene deletion strains; assay: Antimicrobial sensitivity assays (CFU time course of deletion strains and wildtype treated with oxidants or antibiotics); type: cell-based; conditions: 500 ng/mL gentamicin, FIG. 6C
Method: Escherichia coli MG1655 was used in this study. Genetic deletions of aceA, appB, atpC, cyoA, edd, fumB, fbaB, gdhA, gltB, gnd, mqo, nuoG, pfkB, pta, pykA, rpiB, sdhC, sucC, talB, tktB and zwf were transduced from the Keio single-gene deletion knockout library^63 into MG1655 using the P1 phage method, and confirmed with PCR. The media used for all experiments was M9 minimal media with 10 mM glucose as the sole carbon source or MOPS minimal media with 10 mM glucose (for the HyPer protein experiments).
Strains were grown aerobically from an initial inoculation of OD600=0.01 to OD600=0.16-0.20 in 250 mL baffled flasks filled to 1/10th the total volume and shaken at 300 rpm at 37° C. For menadione, H2O2, and ampicillin sensitivity assays, time-zero samples were collected (200-400 μL), then 1 mL aliquots were transferred to 14 mL test tubes, and appropriate volumes of menadione, H2O2, or ampicillin stock solutions, not in excess of 15 μL, were added to obtain the final concentrations (1 mM menadione, 5 mM H2O2, 7.5 μg/mL ampicillin, 100 ng/mL ofloxacin, 15 ng/mL ciprofloxacin, 500 ng/mL gentamicin, 10 μg/mL tetracycline, and 15 μg/mL chloramphenicol). […] Colony forming units were counted approximately 16-18 hours after plating.

[2] = tested on: Escherichia coli MG1655 wildtype cells; assay: Carboxin inhibitor experiments (CFU survival, alone and combined with H2O2 or ampicillin; dose response and synergy); type: cell-based
Method: Strains were grown aerobically from an initial inoculation of OD600=0.01 to OD600=0.16-0.20 in 250 mL baffled flasks filled to 1/10th the total volume and shaken at 300 rpm at 37° C. Time-zero samples were collected (200-400 μL), then 1 mL aliquots were transferred to 14 mL test tubes. Carboxin solubilized in 100% ethanol or ethanol alone was added to the tubes. […] Drug synergism was calculated using the Bliss Independence and Highest Single Agent models^52, 53. Specifically, the formula,
was used to calculate synergism with the Bliss Independence model. A and B are the effects of the two drugs in isolation, whereas, BICAB is the combined effect of the two drugs as predicted by the Bliss Independence model. If CAB, the experimentally-determined combined effect of the two drugs, is >BICAB, synergy is observed. In contrast, in the Highest Single Agent model, if CAB>max(A, B) synergy is observed. Since cell death was monitored, the quantitative effect of each compound was defined as the fractional reduction of the population, R=1−CFUt/CFU0, where CFUt is the number of CFUs measured after treatment, and CFU0 is the number of CFUs measured before treatment. R=1 indicates complete loss of the population, R=0 indicates a population in stasis, and R<0 indicates a growing population. […] The Bliss Independence model can be written as follows,
If A is a compound that reduces CFUs, such as ampicillin, its effect above the MIC will be 0≦A≦1, whereas if B is a compound that allows growth at all concentrations, its effect will be B<0 regardless of the concentration. Rearrangement of the above yields,
Since equation 3 yields BICAB/A<1 for all B<0 and 0<A<1, the Highest Single Agent model requires CAB/A>1 and the Bliss Independence model requires CAB/BICAB>1 for synergy, the Highest Single Agent model will always be a more strict synergy requirement under these conditions. […] Modeling Escherichia coli ROS Metabolism

[3] = cited from earlier work

In the case of gentamicin, the “sensitivity of many target strains compared to wildtype” value ([1]; many predicted target deletion strains) is reported as “decreased sensitivity” and the “sensitivity of ΔatpC strain compared to wildtype” value ([1]; ΔatpC E. coli) is reported as “increased sensitivity”.
For `CC1=C(C(=O)Nc2ccccc2)SCCO1` [carboxin], the “sensitivity of wildtype cells to ampicillin with carboxin compared to ampicillin alone” value ([2]; 500 μM carboxin + 10 μg/mL ampicillin, FIG. 4F) was “significantly more sensitive”, the “sensitivity of wildtype cells to H2O2 with carboxin compared to H2O2 alone” value ([2]; 500 μM carboxin + 5 mM H2O2, FIG. 4E) was “increased sensitivity” and the “effect of carboxin alone on growth of wildtype cells” value ([2]; carboxin alone, 500 μM, wildtype E. coli, FIGS. 4E, 4F) was “no effect on the growth”. For the same compound, the “lethality / growth of E. coli with carboxin” value ([2]; concentrations as high as 1 mM) was “non-lethal and allowed significant growth” and the “suitability as antibiotic adjuvant, human toxicity” value [3] was “not suitable as an antibiotic adjuvant due to human toxicity issues”.
For `CC1(C)S[C@@H]2[C@H](NC(=O)[C@H](N)c3ccccc3)C(=O)N2[C@H]1C(=O)O` [ampicillin], the “ampicillin concentrations synergistic with carboxin” value ([2]; carboxin 250 μM or greater, Bliss Independence and Highest Single Agent models, FIG. 8) was 7.5 to 10 µg/mL.
